Experimental data as given in paper PMC10791687, “The Piezo channel is a mechano-sensitive complex component in the mammalian inner ear hair cell” (Nature Communications, 2024).

Biological target: T1, mPz1 (mouse Piezo1) (Mus musculus, UniProt E2JF22)
T1 construct: full-length, mPz1-IRES-GFP plasmid (clone from A. Patapoutian) in mouse Neuro2A cells; also purified/enriched mPz1 in planar lipid bilayer; homotrimer
Test: single-channel recording in planar lipid bilayer
Type: biochemical
Details: purified mPz1, 500 mM KCl, 10 mM MOPS, pH 7.4

T1 sequence (E2JF22 whole entry): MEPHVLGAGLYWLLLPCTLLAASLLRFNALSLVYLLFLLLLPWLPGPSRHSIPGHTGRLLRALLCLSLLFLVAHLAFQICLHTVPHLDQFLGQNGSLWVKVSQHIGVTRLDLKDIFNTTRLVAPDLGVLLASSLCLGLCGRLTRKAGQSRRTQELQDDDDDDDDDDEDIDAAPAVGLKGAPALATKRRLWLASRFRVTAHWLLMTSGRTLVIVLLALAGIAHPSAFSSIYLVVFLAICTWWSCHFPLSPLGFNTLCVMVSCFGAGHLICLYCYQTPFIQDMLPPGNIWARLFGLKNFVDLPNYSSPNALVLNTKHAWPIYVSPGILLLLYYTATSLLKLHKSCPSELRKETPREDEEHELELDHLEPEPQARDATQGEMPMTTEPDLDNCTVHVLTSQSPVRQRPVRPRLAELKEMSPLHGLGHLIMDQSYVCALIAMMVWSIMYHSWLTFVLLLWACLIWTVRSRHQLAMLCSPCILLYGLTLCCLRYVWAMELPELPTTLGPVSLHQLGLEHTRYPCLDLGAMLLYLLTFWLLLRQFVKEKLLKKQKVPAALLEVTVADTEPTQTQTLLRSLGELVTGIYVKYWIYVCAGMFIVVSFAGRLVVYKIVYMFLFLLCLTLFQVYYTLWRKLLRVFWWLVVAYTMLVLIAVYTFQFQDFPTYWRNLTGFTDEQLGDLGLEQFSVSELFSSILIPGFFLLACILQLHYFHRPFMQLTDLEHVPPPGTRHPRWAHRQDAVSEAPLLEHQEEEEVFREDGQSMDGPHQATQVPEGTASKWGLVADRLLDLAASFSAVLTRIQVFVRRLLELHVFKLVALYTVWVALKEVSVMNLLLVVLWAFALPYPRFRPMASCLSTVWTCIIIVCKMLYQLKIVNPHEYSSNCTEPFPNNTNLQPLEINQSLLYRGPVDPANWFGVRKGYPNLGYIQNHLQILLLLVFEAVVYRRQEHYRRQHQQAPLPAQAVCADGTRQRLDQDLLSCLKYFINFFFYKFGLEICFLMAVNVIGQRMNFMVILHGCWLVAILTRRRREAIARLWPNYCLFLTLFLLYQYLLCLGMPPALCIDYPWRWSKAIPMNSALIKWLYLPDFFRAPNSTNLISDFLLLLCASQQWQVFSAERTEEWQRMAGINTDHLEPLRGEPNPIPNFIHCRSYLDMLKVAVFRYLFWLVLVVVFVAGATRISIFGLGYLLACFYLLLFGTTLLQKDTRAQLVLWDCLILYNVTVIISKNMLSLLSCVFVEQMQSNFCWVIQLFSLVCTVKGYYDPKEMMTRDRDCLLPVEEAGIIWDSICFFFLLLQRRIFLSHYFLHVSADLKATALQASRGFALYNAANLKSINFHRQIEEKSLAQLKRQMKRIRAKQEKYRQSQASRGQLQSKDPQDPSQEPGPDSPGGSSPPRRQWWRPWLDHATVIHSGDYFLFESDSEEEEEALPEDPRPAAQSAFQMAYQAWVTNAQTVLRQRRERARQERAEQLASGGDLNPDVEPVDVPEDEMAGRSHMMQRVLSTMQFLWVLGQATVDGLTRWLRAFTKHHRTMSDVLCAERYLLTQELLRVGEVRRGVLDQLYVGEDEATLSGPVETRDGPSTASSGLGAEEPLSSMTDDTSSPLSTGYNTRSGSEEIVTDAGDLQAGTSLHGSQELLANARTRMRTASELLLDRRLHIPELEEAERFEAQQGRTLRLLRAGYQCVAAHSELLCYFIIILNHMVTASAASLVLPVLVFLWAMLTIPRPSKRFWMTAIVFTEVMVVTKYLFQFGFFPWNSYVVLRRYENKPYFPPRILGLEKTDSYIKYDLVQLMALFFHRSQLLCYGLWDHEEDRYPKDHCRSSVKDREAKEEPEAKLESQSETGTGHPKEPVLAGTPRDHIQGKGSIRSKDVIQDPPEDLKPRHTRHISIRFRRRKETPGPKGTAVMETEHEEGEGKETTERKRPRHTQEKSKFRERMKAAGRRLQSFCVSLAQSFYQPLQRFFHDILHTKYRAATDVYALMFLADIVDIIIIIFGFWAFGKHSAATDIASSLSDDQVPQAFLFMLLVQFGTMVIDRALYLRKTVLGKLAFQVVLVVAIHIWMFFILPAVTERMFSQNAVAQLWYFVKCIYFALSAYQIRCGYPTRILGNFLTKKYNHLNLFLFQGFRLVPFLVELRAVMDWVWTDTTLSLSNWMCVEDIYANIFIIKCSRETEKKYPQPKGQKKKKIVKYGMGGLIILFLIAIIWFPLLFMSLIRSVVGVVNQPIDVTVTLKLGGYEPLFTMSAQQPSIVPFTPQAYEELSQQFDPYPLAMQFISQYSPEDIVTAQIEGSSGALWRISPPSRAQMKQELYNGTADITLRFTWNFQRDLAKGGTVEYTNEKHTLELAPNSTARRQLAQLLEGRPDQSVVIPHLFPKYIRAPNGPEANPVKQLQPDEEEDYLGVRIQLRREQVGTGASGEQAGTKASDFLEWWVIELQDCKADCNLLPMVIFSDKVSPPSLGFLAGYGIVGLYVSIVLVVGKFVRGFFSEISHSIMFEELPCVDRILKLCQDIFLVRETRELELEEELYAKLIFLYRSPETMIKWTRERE

## CN[C@@H]1[C@H](O[C@H]2[C@H](O[C@H]3[C@H](O)[C@@H](O)[C@H](N=C(N)N)[C@@H](O)[C@@H]3N=C(N)N)O[C@@H](C)[C@]2(O)CO)O[C@@H](CO)[C@H](O)[C@H]1O [dihydrostreptomycin]
  single-channel recording in planar lipid bilayer: DHS, GsMTx4, and ruthenium blocked the mPz1-channel activity in lipid bilayers
